Values quoted from earlier work, collected in PMC2923042 (Journal of chemical information and modeling, 2008).

Tested on: catL
Settings: extrapolated from 63% inhibition at 10^-7 M; ref Tsuge et al.[15]

IC50: < 100 nM
SMILES: CN(C)C(=O)[C@H](Cc1ccccc1)NC(=O)[C@H]1O[C@@H]1C(=O)NCCc1ccccn1 [CLIK-148]
